Where two headings read alike, the source gives them in different places. Marks after values point to notes of the source that are not given here.
Tests used:
[1] = tested on: Strongyloides stercoralis infective larvae; assay: Immobilisation of S. stercoralis infective larvae incubated in 0.6% AI suspensions; assay type: cell-based; conditions: for Relative activity (RA), immobilisation / Larvae immobilized: 0.6% AI; for Relative activity (RA), immobilisation: RA of albendazole used as reference; for It50 (hours) ±95% Fiducial limits (FL), immobilisation time: 0.6% active ingredient, S. stercoralis infective larvae; for Larvae immobilized: within one hour's exposure
Method: (§1) Coproculture of about 30 g of fresh, moistened canine faeces was conducted using granular charcoal (1:1 v:v) in sealed 10 cm diameter Petri dishes. Cultures were maintained at 26° C. under semi-lighted conditions. S. stercoralis filariform larvae typically migrated to the surface of the culture and eventually into water droplets that condensed on the inner surface of the lid. Larvae appearing within 2 days were mostly those accruing from the homogonic cycle and usually occurred in insufficient numbers for bioassay. After five to eight days had elapsed free-living adult worms had effected a 50-fold increase in the population density (heterogonic cycle).
The effectiveness of the tested compounds was evaluated by incubating larvae obtained as in Example 1 in suspensions containing 0.6% of Compound (1) as the active ingredient (AI). Incubation times were 1, 2, 3, 4, 5, 6, 24, 48, 72, and 96 hours. Three (3) replicates were run in each assay, using >>100 larvae per replicate.
The anthelmintic effectiveness of Compound (1) and of three commercial anthelmintics, namely albendazole, thiabendazole, and ivermectin, was evaluated, and the results are summarized in Table 1. Compound (1) immobilized 100% of the larvae within one hour's exposure. This was also true for ivermectin. However, similar concentrations of albendazole and thiabendazole immobilized 50% of the infective larvae only after 73.7 and 78.9 hours, respectively.

[2] = tested on: Strongyloides stercoralis infective larvae; assay: microbe, parasite or virus in culture; assay type: cell-based; conditions: for Relative activity (RA), mortality: RA of Compound (1) used as reference; for Lt50 (hours) ±95% Fiducial limits (FL), mortality time: S. stercoralis infective larvae; for mortality at 0.6 % strength: Strongyloides stercoralis, read-out: Larvae killed (mortality)
Method: as §1
The lethality of the tested compounds was evaluated by incubating larvae obtained as in Example 1 in suspensions containing 0.6% of Compound (1) as the active ingredient (AI).
The mortality of the larvae was assessed by a dye exclusion test such as have been used successfully to indicate viability in parasitic platyhelminths. (See Halton & Arme (1971) Exp. Parasit. 30:54; Robinson & Arme (1985) Ann. Trop. Med. & Parasit. 79:17.) Similar testing was applied to S. stercoralis larvae. In these tests, use of
0.01% v/v eosin in LNSS (ELNSS) in an eosin-exclusion test indicated death of larvae in less than 10 minutes and had no effect on healthy individuals.

Compound	Relative activity (RA), immobilisation [1]	It50 (hours) ±95% Fiducial limits (FL), immobilisation time [1]	It50 (hours) ±95% Fiducial limits (FL), immobilisation time ([1]; listed as thiabendazole) [h]	Relative activity (RA), mortality ([2]; 0.6% AI)	Lt50 (hours) ±95% Fiducial limits (FL), mortality time ([2]; 0.6% AI)	mortality at 0.6 % strength ([2]; 120 h) [%]	Larvae immobilized [1] [%]	Lt50 (hours) ±95% Fiducial limits (FL), mortality time ([2]; 0.6% AI, listed as ivermectin) [h]	Larvae killed (mortality) ([2]; after 24 hours, 0.6% AI) [%]	Lt50 (hours) ±95% Fiducial limits (FL), mortality time ([2]; 0.6% AI, listed as Compound(1))	Fold increase in lethal activity over albendazole ([2]; Lt50 basis, 0.6% AI, versus albendazole) [fold]	Fold increase in lethal activity over ivermectin ([2]; Lt50 basis, 0.6% AI, versus ivermectin) [fold]	Fold increase in lethal activity over thiabendazole ([2]; Lt50 basis, 0.6% AI, versus thiabendazole) [fold]	mortality at 0.6 % strength ([2]; 6 h, after six hours, 0.6% AI) [%]	It50 (hours) ±95% Fiducial limits (FL), immobilisation time ([1]; listed as albendazole) [h]
c1ccc2[nH]c(-c3cscn3)nc2c1 [Thiabendazole]	0.93	78.9 (65.5-92.8) hours	78.9	0.01	178.9 h	14.1	–	–	–	–	–	–	–	–	–
ivermectin	>1.00	<1* hours	–	0.14	15.7 (12.5-18.1) hours	–	100	15.7	89.0	–	–	–	–	–	–
CCCCCCCCC/C=C/C=O [Compound (1), E-2-dodecenal]	>1.00	<1* hours	–	1.00*	2.2 h	–	100	–	–	2.2 (1.2-3.3) hours	66.1	7.1	81.3	90.8	–
CCCSc1ccc2nc(NC(=O)OC)[nH]c2c1 [Albendazole, albendazole]	1.00	73.7 (60.4-87.0) hours	–	0.02	145.3 h	37.4	–	–	–	–	–	–	–	–	73.7
